Values belong to the compound of their own block, whether it stands above or below them.
Key:
[1] = Solubility tests in water; type: physicochemical; conditions: comparison of forms I, II and III
Protocol: Solubility tests were performed by dissolving samples of pure forms of marimastat in water.

[2] = Thermogravimetric analysis (TGA); type: physicochemical; conditions: 10° C./min; for weight loss (TG): 25° C.-195° C.; for degradation temperature (TG): range 25° C.-320° C.
Protocol: Thermogravimetric analysis for the crystalline polymorphic form I, II and III was performed using a Mettler Toledo TGA/DSC1 apparatus. The sample was weighed in an aluminum pan closed with an aluminum cover with holes.
[…] […] The degradation occurred above 200° C. The TG analysis proves that the crystalline polymorphic form I of marimastat exists in the anhydrous form.
[…] […] The degradation occurred above 200° C. The TG analysis proves that the crystalline polymorphic form II of marimastat exists in the anhydrous form.
This sample was analyzed by TGA-EGA. The analysis was performed at a temperature of 25° C.-320° C. at a rate of 10° C./min. […] The degradation occurred above 200° C. The TG analysis proves that the crystalline polymorphic form III of marimastat exists in the anhydrous form.

[3] = Stability studies of solid forms under storage conditions, XRPD; type: physicochemical; conditions: 25° C./100% RH and 40° C./75% RH 7 days; 30°/100 mbar 1 hour; room temperature 1 year; above 150° C.
Protocol: Stability studies of the amorphous form, pure crystalline polymorphic forms I, II and III and the mixture of the crystalline polymorphic forms I and III were carried out under the following conditions: 25° C./100% RH (relative humidity) and 40° C./75% RH (relative humidity) for 7 days, at 30°/100 mbar for 1 hour, at room temperature for 1 year, and also at elevated temperature (above 150° C.).

[4] = Stability of the forms I, II and III stirred together in various solvents, XRPD; type: physicochemical; conditions: for thermodynamic stability of the form: maceration of the mixture of all three forms in different solvents, room temperature, 4 days; for XRPD form after stirring: 25 °C, 4 d
Description: The remaining 7 solvents gave the initial mixture of three polymorphic forms. Thus, when using the mixture of all three forms for maceration in different solvents, complete disappearance of the form II and the form III, complete disappearance of the form II, or all three forms remaining in the mixture were observed. The complete disappearance of the form I was not observed in any of the experiments.

[5] = system: kainic acid-induced status epilepticus model; conditions: mouse study; cited from earlier work
[6] = system: tumor-specific antigens (CEA, CA 19/9, CA 125, prostate-specific antigen); conditions: meta-analysis of phase I/II trials, over 400 patients, solid tumors; cited from earlier work
[7] = Microscopic examinations / bulk density; type: physicochemical; conditions: comparison of the forms
Protocol: Microscopic examinations were performed using an optical microscope or electron microscope.

[8] = Stability of the form II in various solvents at room temperature, XRPD; type: physicochemical; conditions: for XRPD form after stirring: 25 °C, 4 d
Protocol: The stability of the form II in various solvents at room temperature was tested. Experiments were performed by suspending the form II in 1 ml of solvent and the formed suspension was stirred at room temperature at 25° C. for 4 days. Then, the precipitate was filtered off and the samples were dried at a temperature of 30° C./100 mbar for one hour, followed by XRPD analysis.

rate of dissolution in water [1]: fastest soluble in water | weight loss (TG) [2]: 0.4% | degradation temperature (TG) [2]: above 200 °C | stability by XRPD (changes in diffraction lines) [3]: stable | thermodynamic stability of the form [4]: kinetic forms
SMILES: CNC(=O)[C@@H](NC(=O)[C@H](CC(C)C)[C@H](O)C(=O)NO)C(C)(C)C [form III]

SMILES: CNC(=O)[C@@H](NC(=O)[C@H](CC(C)C)[C@H](O)C(=O)NO)C(C)(C)C [Marimastat, (2R,3S)—N-1-((S)-3,3-dimethyl-1-methylamino-1-oxobutan-2-yl)-N-4,3-dihydroxy-2-isobutylsuccinamide]
duration and number of seizures [5]: reduced the duration and number of seizures | growth indicators of tumor-specific antigens [6]: significantly reduced all four growth indicators of tumor-specific antigens in a dose-dependent manner

XRPD form after stirring ([4]; 2-propanol, 30 mg/mL): Form I + Form III | XRPD form after stirring ([4]; acetone, 10 mg/mL): Form I | XRPD form after stirring ([4]; acetonitrile, 10 mg/mL): Form I | XRPD form after stirring ([4]; butyl acetate, 10 mg/mL): Form I + Form II + Form III | XRPD form after stirring ([4]; dimethoxyethane, 10 mg/mL): Form I | XRPD form after stirring ([4]; ethanol, 10 mg/mL): Form I | XRPD form after stirring ([4]; heptane, 10 mg/mL): Form I + Form II + Form III | XRPD form after stirring ([4]; methanol, 110 mg/mL): Form I | XRPD form after stirring ([4]; methyl isobutyl ketone, 10 mg/mL): Form I + Form II + Form III | XRPD form after stirring ([4]; methyl tert-butyl ether, 10 mg/mL): Form I + Form III | XRPD form after stirring ([4]; methylcyclohexane, 10 mg/mL): Form I + Form II + Form III | XRPD form after stirring ([4]; methylene chloride, 10 mg/mL): Form I + Form II + Form III | XRPD form after stirring ([4]; p-xylene, 10 mg/mL): Form I + Form II + Form III | XRPD form after stirring ([4]; tetrahydrofuran, 10 mg/mL): Form I | XRPD form after stirring ([4]; toluene, 10 mg/mL): Form I + Form II + Form III | XRPD form after stirring ([4]; water, 30 mg/mL): Form I + Form III
SMILES: CNC(=O)[C@@H](NC(=O)[C@H](CC(C)C)[C@H](O)C(=O)NO)C(C)(C)C [mixture of three polymorphic forms]

stability by XRPD (changes in diffraction lines) [3]: stable
SMILES: CNC(=O)[C@@H](NC(=O)[C@H](CC(C)C)[C@H](O)C(=O)NO)C(C)(C)C [mixture of the forms I and III]

bulk density [7]: highest and comparable bulk density | rate of dissolution in water [1]: dissolves the slowest | weight loss (TG) [2]: 0.3% | degradation temperature (TG) [2]: above 200 °C | stability by XRPD (changes in diffraction lines) [3]: stable | thermodynamic stability of the form [4]: most thermodynamically stable | thermodynamic stability of the form ([8]; form II stirred in solvents, 25° C., 4 days): greatest thermodynamic stability
SMILES: CNC(=O)[C@@H](NC(=O)[C@H](CC(C)C)[C@H](O)C(=O)NO)C(C)(C)C [form I]

bulk density [7]: highest and comparable bulk density | weight loss (TG) [2]: 0.2% | degradation temperature (TG) [2]: above 200 °C | stability by XRPD (changes in diffraction lines) [3]: stable | thermodynamic stability of the form [4]: kinetic forms | XRPD form after stirring ([8]; 2-propanol, 30 mg/mL): Form II | XRPD form after stirring ([8]; acetonitrile, 10 mg/mL): Form I | XRPD form after stirring ([8]; butyl acetate, 10 mg/mL): Form Il | XRPD form after stirring ([8]; ethanol, 10 mg/mL): Form II | XRPD form after stirring ([8]; methanol, 110 mg/mL): Form I | XRPD form after stirring ([8]; methylcyclohexane, 10 mg/mL): Form II | XRPD form after stirring ([8]; methylene chloride, 20 mg/mL): Form II | XRPD form after stirring ([8]; p-xylene, 20 mg/mL): Form II | XRPD form after stirring ([8]; water, 30 mg/mL): Form II
SMILES: CNC(=O)[C@@H](NC(=O)[C@H](CC(C)C)[C@H](O)C(=O)NO)C(C)(C)C [form II]

Reference: US20260116847A1 (priority 2023, published 2026)
